Values joined by “and” are separate entries in the source; they are usually repeats but may differ in a detail not shown here. Identical values can stand only once. Like-named read-outs stand apart in the source and are kept apart here.
Columns and labels:
insulin receptor [1] = biological target: T1, insulin receptor (Homo sapiens, UniProt P06213); experiment: Insulin receptor phosphorylation assay in receptor transfected HEK293 cells; format: cell-based; parameters: expressed in transfected cells; host or cells: HEK293
IGF-1 receptor [2] = biological target: T2, IGF-1 receptor (Homo sapiens, UniProt P08069); experiment: IGF-1 receptor competition binding assay (scintillation proximity); parameters: expressed in transfected cells; plasma membrane fragments
IGF-1 receptor [3] = biological target: T2, IGF-1 receptor; experiment: IGF-1 receptor phosphorylation assay in receptor transfected HEK293 cells; format: cell-based; parameters: expressed in transfected cells; host or cells: HEK293
insulin receptor [4] = biological target: T1, insulin receptor; experiment: Insulin receptor competition binding assay (scintillation proximity); parameters: expressed in transfected cells; plasma membrane fragments
[5] = Table 9, IGF-1 receptor versus insulin receptor

T1 sequence (P06213 28-758 limits assumed): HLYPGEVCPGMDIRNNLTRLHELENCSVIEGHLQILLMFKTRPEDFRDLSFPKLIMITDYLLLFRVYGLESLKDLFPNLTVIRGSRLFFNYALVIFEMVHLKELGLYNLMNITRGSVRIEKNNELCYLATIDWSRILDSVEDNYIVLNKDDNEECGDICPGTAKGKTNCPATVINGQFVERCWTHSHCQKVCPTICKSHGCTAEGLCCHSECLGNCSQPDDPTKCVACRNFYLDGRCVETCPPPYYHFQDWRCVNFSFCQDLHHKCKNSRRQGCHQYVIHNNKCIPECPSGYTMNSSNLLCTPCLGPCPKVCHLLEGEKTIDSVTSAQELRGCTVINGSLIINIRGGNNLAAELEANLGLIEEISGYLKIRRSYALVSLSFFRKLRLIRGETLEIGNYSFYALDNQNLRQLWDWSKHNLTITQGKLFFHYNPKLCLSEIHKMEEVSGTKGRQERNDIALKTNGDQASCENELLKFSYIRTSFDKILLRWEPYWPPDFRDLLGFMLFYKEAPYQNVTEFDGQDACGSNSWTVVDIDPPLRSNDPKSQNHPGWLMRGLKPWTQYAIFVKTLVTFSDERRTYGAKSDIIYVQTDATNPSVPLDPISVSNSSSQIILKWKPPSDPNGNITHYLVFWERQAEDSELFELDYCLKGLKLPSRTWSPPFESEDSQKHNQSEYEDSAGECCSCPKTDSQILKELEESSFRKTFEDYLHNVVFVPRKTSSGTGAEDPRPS
T1 sequence (P06213 763-1382 partner limits assumed): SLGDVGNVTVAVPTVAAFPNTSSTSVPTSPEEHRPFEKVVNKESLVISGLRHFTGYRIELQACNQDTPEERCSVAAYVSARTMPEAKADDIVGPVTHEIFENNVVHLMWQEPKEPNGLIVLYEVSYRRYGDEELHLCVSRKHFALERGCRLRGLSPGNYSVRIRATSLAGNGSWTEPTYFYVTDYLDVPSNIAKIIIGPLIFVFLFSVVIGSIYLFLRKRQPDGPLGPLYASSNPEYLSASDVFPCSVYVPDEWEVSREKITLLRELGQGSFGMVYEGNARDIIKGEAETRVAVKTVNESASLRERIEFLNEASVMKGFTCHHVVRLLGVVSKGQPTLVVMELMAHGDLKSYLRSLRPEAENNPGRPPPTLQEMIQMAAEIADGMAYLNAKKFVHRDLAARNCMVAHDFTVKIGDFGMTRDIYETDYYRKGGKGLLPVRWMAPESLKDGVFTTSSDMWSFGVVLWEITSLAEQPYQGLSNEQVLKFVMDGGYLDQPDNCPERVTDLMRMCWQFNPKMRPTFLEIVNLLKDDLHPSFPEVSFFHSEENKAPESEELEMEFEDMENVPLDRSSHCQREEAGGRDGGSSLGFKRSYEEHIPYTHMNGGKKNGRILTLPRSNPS
T2 sequence (P08069 31-736 limits assumed): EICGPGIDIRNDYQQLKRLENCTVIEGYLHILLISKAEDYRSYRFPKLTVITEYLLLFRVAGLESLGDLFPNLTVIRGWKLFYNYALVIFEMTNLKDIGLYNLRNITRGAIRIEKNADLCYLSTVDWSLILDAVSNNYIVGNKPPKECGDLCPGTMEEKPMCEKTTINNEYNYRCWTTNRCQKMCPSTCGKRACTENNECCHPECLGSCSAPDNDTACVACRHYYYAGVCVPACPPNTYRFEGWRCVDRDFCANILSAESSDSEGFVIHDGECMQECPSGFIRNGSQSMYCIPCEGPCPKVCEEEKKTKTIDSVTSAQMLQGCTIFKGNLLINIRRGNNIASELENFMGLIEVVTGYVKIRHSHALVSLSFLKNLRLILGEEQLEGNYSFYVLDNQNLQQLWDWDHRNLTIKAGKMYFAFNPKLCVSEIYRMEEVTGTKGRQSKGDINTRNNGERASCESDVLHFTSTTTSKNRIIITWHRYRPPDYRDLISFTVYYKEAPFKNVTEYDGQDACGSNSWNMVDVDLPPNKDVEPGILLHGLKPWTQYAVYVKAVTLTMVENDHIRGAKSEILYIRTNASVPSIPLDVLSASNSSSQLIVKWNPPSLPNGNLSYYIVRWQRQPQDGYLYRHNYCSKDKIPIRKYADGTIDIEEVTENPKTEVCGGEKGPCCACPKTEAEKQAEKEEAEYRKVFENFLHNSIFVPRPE
T2 sequence (P08069 741-1367 partner limits assumed): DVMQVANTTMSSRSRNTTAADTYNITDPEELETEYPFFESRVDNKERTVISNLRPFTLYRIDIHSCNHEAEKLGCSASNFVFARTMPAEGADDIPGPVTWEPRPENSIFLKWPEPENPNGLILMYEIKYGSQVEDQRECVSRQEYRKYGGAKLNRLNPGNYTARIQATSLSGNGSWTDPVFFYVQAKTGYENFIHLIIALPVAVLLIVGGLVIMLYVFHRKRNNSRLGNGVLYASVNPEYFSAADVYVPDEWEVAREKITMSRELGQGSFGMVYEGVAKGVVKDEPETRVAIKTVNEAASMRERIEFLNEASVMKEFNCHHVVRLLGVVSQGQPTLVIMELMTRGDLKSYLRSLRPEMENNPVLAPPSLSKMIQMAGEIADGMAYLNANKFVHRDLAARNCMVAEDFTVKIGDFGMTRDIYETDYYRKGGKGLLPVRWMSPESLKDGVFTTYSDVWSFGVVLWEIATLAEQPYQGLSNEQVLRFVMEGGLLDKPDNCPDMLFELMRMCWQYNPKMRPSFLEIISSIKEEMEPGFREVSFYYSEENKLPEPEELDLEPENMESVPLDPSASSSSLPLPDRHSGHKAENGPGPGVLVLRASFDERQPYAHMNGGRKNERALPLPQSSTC

| Compound | % Insulin (insulin receptor [1]; Table 10, Insulin Receptor) | % IGF-1 (in test) (IGF-1 receptor [2]; Table 9, IGF-1 Receptor) | % IGF (IGF-1 receptor [3]; Table 10, IGF-1 Receptor) [%] | % insulin (in test) (insulin receptor [4]; Table 9, Insulin Receptor) | % native insulin activity (0.6 nM) (insulin receptor [4]; Table 9, Insulin Receptor) | Ratio (IGF-1 receptor [2]; [5]) | other results |
| --- | --- | --- | --- | --- | --- | --- | --- |
| CC[C@H](C)[C@H](NC(=O)CN)C(=O)N[C@H](C(=O)N[C@@H](CC(=O)O)C(=O)N[C@@H](CCC(=O)O)C(=O)N[C@H]1CSSC[C@@H]2NC(=O)[C@H](CO)NC(=O)[C@H](CCCNC(=N)N)NC(=O)[C@H](Cc3ccccc3)NC(=O)[C@H](CSSC[C@H](NC(=O)[C@H](CC(C)C)NC(=O)[C@@H](NC(=O)[C@H](CCC(=O)O)NC(=O)[C@@H]3CCCN3C(=O)CN)[C@@H](C)O)C(=O)NCC(=O)N[C@@H](C)C(=O)N[C@@H](CC(=O)O)C(=O)N[C@@H](CC(C)C)C(=O)N[C@@H](C(C)C)C(=O)N[C@@H](CC(=O)O)C(=O)N[C@@H](C)C(=O)N[C@@H](CC(C)C)C(=O)N[C@@H](Cc3ccc(O)cc3)C(=O)N[C@@H](CC(C)C)C(=O)N[C@@H](C(C)C)C(=O)N[C@H](C(=O)NCC(=O)N[C@@H](CC(=O)O)C(=O)N[C@@H](CCCNC(=N)N)C(=O)NCC(=O)N[C@@H](Cc3ccccc3)C(=O)N[C@@H](Cc3ccc(O)cc3)C(N)=O)CSSC[C@@H](C(=O)N[C@@H](C)C(=O)O)NC(=O)[C@H](Cc3ccc(O)cc3)NC(=O)[C@H](CCSC)NC(=O)[C@H](CCC(=O)O)NC(=O)[C@H](CC(C)C)NC(=O)[C@H](CCCNC(=N)N)NC(=O)[C@H](CCCNC(=N)N)NC(=O)[C@H](CC(C)C)NC(=O)[C@H](CC(=O)O)NC2=O)NC1=O)C(C)C [IGF-1 A:B(D10Y16L17) DPI A-COOH] | 1575% | 7.7% | 111.538 |  |  |  |  |
| CC[C@H](C)[C@H](NC(=O)CN)C(=O)N[C@H](C(=O)N[C@@H](CC(=O)O)C(=O)N[C@@H](CCC(=O)O)C(=O)N[C@H]1CSSC[C@@H]2NC(=O)[C@H](CO)NC(=O)[C@H](CCCNC(=N)N)NC(=O)[C@H](Cc3ccccc3)NC(=O)[C@H](CSSC[C@H](NC(=O)[C@H](CC(C)C)NC(=O)[C@@H](NC(=O)[C@H](CCC(=O)O)NC(=O)[C@@H]3CCCN3C(=O)CN)[C@@H](C)O)C(=O)NCC(=O)N[C@@H](C)C(=O)N[C@@H](CCC(=O)O)C(=O)N[C@@H](CC(C)C)C(=O)N[C@@H](C(C)C)C(=O)N[C@@H](CC(=O)O)C(=O)N[C@@H](C)C(=O)N[C@@H](CC(C)C)C(=O)N[C@@H](Cc3ccc(O)cc3)C(=O)N[C@@H](CC(C)C)C(=O)N[C@@H](C(C)C)C(=O)N[C@H](C(=O)NCC(=O)N[C@@H](CC(=O)O)C(=O)N[C@@H](CCCNC(=N)N)C(=O)NCC(=O)N[C@@H](Cc3ccccc3)C(=O)N[C@@H](Cc3ccc(O)cc3)C(=O)N[C@@H](Cc3ccccc3)C(=O)N[C@@H](CC(N)=O)C(=O)N[C@@H](CCCCN)C(=O)N3CCC[C@H]3C(=O)N[C@H](C(N)=O)[C@@H](C)O)CSSC[C@@H](C(=O)N[C@@H](C)C(N)=O)NC(=O)[C@H](Cc3ccc(O)cc3)NC(=O)[C@H](CCSC)NC(=O)[C@H](CCC(=O)O)NC(=O)[C@H](CC(C)C)NC(=O)[C@H](CCCNC(=N)N)NC(=O)[C@H](CCCNC(=N)N)NC(=O)[C@H](CC(C)C)NC(=O)[C@H](CC(=O)O)NC2=O)NC1=O)C(C)C [IGF-1 A:B(E10Y16L17)] | 49.2% | 6.8% and 5.0% | 13 | 58.7% and 98.8% | 90.9% and 117.6% | 11.9 | IC50 (insulin receptor [4]; IC50:): 0.51 nM; IC80 (IGF-1 receptor [2]; Table 9, IGF-1 Receptor): 12.2 nM |
| CC[C@H](C)[C@H](NC(=O)CN)C(=O)N[C@H](C(=O)N[C@@H](CC(=O)O)C(=O)N[C@@H](CCC(=O)O)C(=O)N[C@H]1CSSC[C@@H]2NC(=O)[C@H](CO)NC(=O)[C@H](CCCNC(=N)N)NC(=O)[C@H](Cc3ccccc3)NC(=O)[C@H](CSSC[C@H](NC(=O)[C@H](CC(C)C)NC(=O)[C@H](Cc3c[nH]cn3)NC(=O)[C@H](CCC(=O)O)NC(=O)[C@@H]3CCCN3C(=O)CN)C(=O)NCC(=O)N[C@@H](C)C(=O)N[C@@H](CC(=O)O)C(=O)N[C@@H](CC(C)C)C(=O)N[C@@H](C(C)C)C(=O)N[C@@H](CC(=O)O)C(=O)N[C@@H](C)C(=O)N[C@@H](CC(C)C)C(=O)N[C@@H](Cc3ccc(O)cc3)C(=O)N[C@@H](CC(C)C)C(=O)N[C@@H](C(C)C)C(=O)N[C@H](C(=O)NCC(=O)N[C@@H](CC(=O)O)C(=O)N[C@@H](CCCNC(=N)N)C(=O)NCC(=O)N[C@@H](Cc3ccccc3)C(=O)N[C@@H](Cc3ccc(O)cc3)C(N)=O)CSSC[C@@H](C(=O)N[C@@H](C)C(N)=O)NC(=O)[C@H](Cc3ccc(O)cc3)NC(=O)[C@H](CCSC)NC(=O)[C@H](CCC(=O)O)NC(=O)[C@H](CC(C)C)NC(=O)[C@H](CCCNC(=N)N)NC(=O)[C@H](CCCNC(=N)N)NC(=O)[C@H](CC(C)C)NC(=O)[C@H](CC(=O)O)NC2=O)NC1=O)C(C)C [IGF-1 A:B (H5D10Y16L17) DPI] |  | 11.2% | 7.1 | 479.0% |  | 29.1 |  |
| CC[C@H](C)[C@H](NC(=O)CN)C(=O)N[C@H](C(=O)N[C@@H](CC(=O)O)C(=O)N[C@@H](CCC(=O)O)C(=O)N[C@H]1CSSC[C@@H]2NC(=O)[C@H](CO)NC(=O)[C@H](CCCNC(=N)N)NC(=O)[C@H](Cc3ccccc3)NC(=O)[C@H](CSSC[C@H](NC(=O)[C@H](CC(C)C)NC(=O)[C@@H](NC(=O)[C@H](CCC(=O)O)NC(=O)[C@@H]3CCCN3C(=O)CN)[C@@H](C)O)C(=O)NCC(=O)N[C@@H](C)C(=O)N[C@@H](CCC(=O)O)C(=O)N[C@@H](CC(C)C)C(=O)N[C@@H](C(C)C)C(=O)N[C@@H](CC(=O)O)C(=O)N[C@@H](C)C(=O)N[C@@H](CC(C)C)C(=O)N[C@@H](Cc3ccc(O)cc3)C(=O)N[C@@H](CC(C)C)C(=O)N[C@@H](C(C)C)C(=O)N[C@H](C(=O)NCC(=O)N[C@@H](CC(=O)O)C(=O)N[C@@H](CCCNC(=N)N)C(=O)NCC(=O)N[C@@H](Cc3ccccc3)C(=O)N[C@@H](Cc3ccc(O)cc3)C(=O)N[C@@H](Cc3ccccc3)C(=O)N[C@@H](CC(N)=O)C(=O)N[C@@H](CCCCN)C(=O)N3CCC[C@H]3C(=O)N[C@H](C(=O)N[C@@H](CCC(=O)O)C(=O)N[C@@H](CCC(=O)O)C(=O)O)[C@@H](C)O)CSSC[C@@H](C(=O)N[C@@H](C)C(N)=O)NC(=O)[C@H](Cc3ccc(O)cc3)NC(=O)[C@H](CCSC)NC(=O)[C@H](CCC(=O)O)NC(=O)[C@H](CC(C)C)NC(=O)[C@H](CCCNC(=N)N)NC(=O)[C@H](CCCNC(=N)N)NC(=O)[C@H](CC(C)C)NC(=O)[C@H](CC(=O)O)NC2=O)NC1=O)C(C)C [IGF-1 A:B(E10 Y16L17)-E31E3 2B-COOH] | 18.1% and 31.7% | 3.0% |  | 36.5% | 50.0% | 14.3 |  |
| CC[C@H](C)[C@H](NC(=O)CN)C(=O)N[C@H](C(=O)N[C@@H](CC(=O)O)C(=O)N[C@@H](CCC(=O)O)C(=O)N[C@H]1CSSC[C@@H]2NC(=O)[C@H](CO)NC(=O)[C@H](C)NC(=O)[C@H](Cc3c[nH]cn3)NC(=O)[C@H](CSSC[C@H](NC(=O)[C@H](CC(C)C)NC(=O)[C@H](Cc3c[nH]cn3)NC(=O)[C@H](CCC(=O)O)NC(=O)[C@@H]3CCCN3C(=O)CN)C(=O)NCC(=O)N[C@@H](C)C(=O)N[C@@H](CC(=O)O)C(=O)N[C@@H](CC(C)C)C(=O)N[C@@H](C(C)C)C(=O)N[C@@H](CC(=O)O)C(=O)N[C@@H](C)C(=O)N[C@@H](CC(C)C)C(=O)N[C@@H](Cc3ccc(O)cc3)C(=O)N[C@@H](CC(C)C)C(=O)N[C@@H](C(C)C)C(=O)N[C@H](C(=O)NCC(=O)N[C@@H](CC(=O)O)C(=O)N[C@@H](CCCNC(=N)N)C(=O)NCC(=O)N[C@@H](Cc3ccccc3)C(=O)N[C@@H](Cc3ccc(O)cc3)C(N)=O)CSSC[C@@H](C(=O)N[C@@H](CC(N)=O)C(=O)O)NC(=O)[C@H](Cc3ccc(O)cc3)NC(=O)[C@H](CCSC)NC(=O)[C@H](CCC(=O)O)NC(=O)[C@H](CC(C)C)NC(=O)[C@H](CCCNC(=N)N)NC(=O)[C@H](CCCNC(=N)N)NC(=O)[C@H](CC(C)C)NC(=O)[C@H](CC(=O)O)NC2=O)NC1=O)C(C)C |  | 12.9% | 181.395 | 1576.7% and 1667.0% |  | 80.6 | % Insulin (insulin receptor [1]; Table 10, Insulin Receptor, listed as IGF-1 A (H8 A9 N21) B(H5D10Y16L17) DPI A-COOH): 840% and 1080% |
| CC[C@H](C)[C@H](NC(=O)CN)C(=O)N[C@H](C(=O)N[C@@H](CC(=O)O)C(=O)N[C@@H](CCC(=O)O)C(=O)N[C@H]1CSSC[C@@H]2NC(=O)[C@H](CO)NC(=O)[C@H](C)NC(=O)[C@H](Cc3c[nH]cn3)NC(=O)[C@H](CSSC[C@H](NC(=O)[C@H](CC(C)C)NC(=O)[C@H](Cc3c[nH]cn3)NC(=O)[C@H](CCC(=O)O)NC(=O)[C@@H]3CCCN3C(=O)CN)C(=O)NCC(=O)N[C@@H](C)C(=O)N[C@@H](CC(=O)O)C(=O)N[C@@H](CC(C)C)C(=O)N[C@@H](C(C)C)C(=O)N[C@@H](CC(=O)O)C(=O)N[C@@H](C)C(=O)N[C@@H](CC(C)C)C(=O)N[C@@H](Cc3ccc(O)cc3)C(=O)N[C@@H](CC(C)C)C(=O)N[C@@H](C(C)C)C(=O)N[C@H](C(=O)NCC(=O)N[C@@H](CC(=O)O)C(=O)N[C@@H](C)C(=O)NCC(=O)N[C@@H](Cc3ccccc3)C(=O)N[C@@H](Cc3ccc(O)cc3)C(N)=O)CSSC[C@@H](C(=O)N[C@@H](CC(N)=O)C(=O)O)NC(=O)[C@H](Cc3ccc(O)cc3)NC(=O)[C@H](CCSC)NC(=O)[C@H](CCC(=O)O)NC(=O)[C@H](CC(C)C)NC(=O)[C@H](CCCNC(=N)N)NC(=O)[C@H](CCCNC(=N)N)NC(=O)[C@H](CC(C)C)NC(=O)[C@H](CC(=O)O)NC2=O)NC1=O)C(C)C |  |  |  |  |  |  | % Insulin (insulin receptor [1]): 360% and 614%; % insulin (in test) (insulin receptor [4]): 1171.4%; % IGF-1 (in test) (IGF-1 receptor [2]): 2.3%; Ratio (IGF-1 receptor [2]): 190.3; % IGF (IGF-1 receptor [3]): 7.7%; Selective Ratio (IGF-1 receptor [3]): 32.54 |

— patent US9593156B2 (priority 2012, dated 2017)
